Experimental data taken from ChEMBL document CHEMBL4043162, “Synthesis of novel flavonoid alkaloids as α-glucosidase inhibitors” (Bioorg Med Chem, 2017).
pIC50, pKi: −log10 of the molar value. Active and inactive are the calls of the source. The rule behind the calls is not given here.

molecular target: not listed separately; test: Inhibition of Saccharomyces cerevisiae alpha-glucosidase pre-incubated for 15 mins before p-nitrophenyl-alpha-D-glucopyranoside substrate addition and measured after 30 mins by UV spectrometry

pIC50	Compound
< 3.30	O=c1cc(-c2ccccc2)oc2cc(O)c(CN3CCc4ccccc4C3)c(O)c12
3.69	O=C1CC(c2ccc(O)cc2)Oc2cc(O)c(CN3CCOCC3)c(O)c21 (configuration not stated)
< 3.30	O=c1cc(-c2ccccc2)oc2c(CN3CCN(CCO)CC3)c(O)cc(O)c12
< 3.30	Oc1ccc(C2CCc3c(cc(O)c(C4CCCCN4)c3O)O2)cc1 (configuration not stated)
5.39	CCOC(=O)c1ccc(N2CCN(Cc3c(O)cc4c(c3O)C(=O)CC(c3ccc(O)cc3)O4)CC2)cc1 (configuration not stated)
< 3.30	COc1ccc(-c2coc3c(CN4CCCCC4)c(O)ccc3c2=O)cc1
3.60	O=C1CC(c2ccc(O)cc2)Oc2cc(O)c(C3CCCCN3)c(O)c21 (configuration not stated)
< 3.30	O=c1cc(-c2ccccc2)oc2cc(O)c(CN3CCN(CCO)CC3)c(O)c12
< 3.30	COc1ccc(C2CC(=O)c3c(cc(O)c(C4CCCCN4)c3O)O2)cc1O (configuration not stated)
< 3.30	O=c1cc(-c2ccccc2)oc2cc(O)c(CN3CCOCC3)c(O)c12
3.66	CCN(CC)Cc1c(O)cc2oc(-c3ccccc3)cc(=O)c2c1O
3.53	O=c1cc(-c2ccc(O)cc2)oc2cc(O)c(C3CCCCN3)c(O)c12 (configuration not stated)
4.08	O=C1CC(c2ccc(O)cc2)Oc2cc(O)c(CN3CCCCC3)c(O)c21 (configuration not stated)
< 3.30	O=c1cc(-c2ccccc2)oc2c(C3CCCCN3)c(O)cc(O)c12 (configuration not stated)
< 3.30	Oc1ccc(C2CCc3c(O)cc(O)c(C4CCCCN4)c3O2)cc1 (configuration not stated)
4.19	CCOC(=O)N1CCN(Cc2c(O)cc3c(c2O)C(=O)CC(c2ccc(O)cc2)O3)CC1 (configuration not stated)
< 3.30	CCOC(=O)N1CCN(Cc2c(O)c(CN3CCN(C(=O)OCC)CC3)c3oc(-c4ccccc4)cc(=O)c3c2O)CC1
< 3.30	O=C1c2c(cc(O)c(C3CCCCN3)c2O)OC(c2ccc(O)c(O)c2)C1O (configuration not stated)
< 3.30	O=c1cc(-c2ccccc2)oc2cc(O)c(C3CCCCN3)c(O)c12 (configuration not stated)
3.28	O=C1CC(c2ccc(O)cc2)Oc2cc(O)c(CN3CCN(CCO)CC3)c(O)c21 (configuration not stated)
< 3.30	CCOC(=O)N1CCN(Cc2c(O)cc3oc(-c4ccccc4)cc(=O)c3c2O)CC1
4.63	O=C1CC(c2ccc(O)cc2)Oc2cc(O)c(CN3CCc4ccccc4C3)c(O)c21 (configuration not stated)
< 3.30	O=c1cc(-c2ccccc2)oc2cc(O)c(CN3CCCCC3)c(O)c12

test system: Saccharomyces cerevisiae; test: Non-competitive inhibition of Saccharomyces cerevisiae alpha-glucosidase pre-incubated for 15 mins before p-nitrophenyl-alpha-D-glucopyranoside substrate addition and measured after 30 mins by UV spectrometry based Lineweaver-Burk plot

inhibition	Compound
Active	CCOC(=O)c1ccc(N2CCN(Cc3c(O)cc4c(c3O)C(=O)CC(c3ccc(O)cc3)O4)CC2)cc1 (configuration not stated)
Active	O=C1CC(c2ccc(O)cc2)Oc2cc(O)c(CN3CCc4ccccc4C3)c(O)c21 (configuration not stated)

molecular target: not listed separately; test: Non-competitive inhibition of Saccharomyces cerevisiae alpha-glucosidase pre-incubated for 15 mins before p-nitrophenyl-alpha-D-glucopyranoside substrate addition and measured after 30 mins by UV spectrometry based Dixon plot

pKi	Compound
4.88	CCOC(=O)c1ccc(N2CCN(Cc3c(O)cc4c(c3O)C(=O)CC(c3ccc(O)cc3)O4)CC2)cc1 (configuration not stated)
4.42	O=C1CC(c2ccc(O)cc2)Oc2cc(O)c(CN3CCc4ccccc4C3)c(O)c21 (configuration not stated)
